Test results published in patent US20240209456A1, “METHODS AND COMPOSITIONS RELATED TO CELL-CYCLE RNA's” (BETH ISRAEL DEACONESS MEDICAL CENTER, priority 2021, published 2024).
*1 amine or outer side, *2 acyl side, *3 side chain or, on linkers, in order; H or OH if unused. Where a SMILES comes first, the peptide text is derived from it. Bridges are numbered along the chain shown (N, C = ends). Roman numbers before positions name the chains, in order. [ ]: non-standard residue; d: D form. Actinocin(9to1) = Cc1c2oc3c(C)ccc(C(=O)[*:1])c3nc-2c(C(=O)[*:2])c(N)c1=O; NMeV = CN[C@H](C(=O)O)C(C)C; Sar = CNCC(=O)O

Columns and labels:
Type in all cases: cell-based, human
H2A.Z = experiment: ChIP-Seq with H2A.Z antibody, occupancy at TSSs; settings: for number of TSS with comparable (2-fold) decrease in total H2A.Z occupancy: HL-60, 2 hr treatment, vs cells without treatment, 38,512 TSS compared; for occupancy levels of unmodified H2A.Z at the TSS, genome-wide / H2A.Z peak intensity ratio, PU.1 locus (DMSO = 1) / H2A.Z peak intensity ratio, c-MYC locus (DMSO = 1): HL-60, 2 hr; for occupancy levels of unmodified H2A.Z at the TSS, genome-wide: vs mock-treated (DMSO), FIG. 4C; for H2A.Z peak intensity ratio, PU.1 locus (DMSO = 1) / H2A.Z peak intensity ratio, c-MYC locus (DMSO = 1): [DMSO/DRB/ActD]
Excerpt: (§1) Two transcription inhibitors, Actinomycin D (ActD; RNA Polymerase I, II and III inhibitor) and 5,6-Dichlorobenzimidazole 1-β-D-ribofuranoside (DRB; RNAPII Inhibitor), were used at concentrations sufficient to block both RNA Polymerases II and III. Cells were synchronized with a double thymidine block and released into S Phase with ActD/DRB added. The rationale behind the use of ActD and DRB is: (i) to globally assess the effect of SPEARs suppression over a short time frame; (ii) to test effects resulting from the two different pathways triggered by ActD and DRB; and (iii) to take advantage of the reversibility of DRB treatment. […] Two hours after drug treatment, cells were crosslinked and subjected to ChIP-Seq analyses. […] Relative changes were then investigated in the footprints of unmodified H2A.Z and acH2A.Z in the vicinity of TSSs that result from DRB- and ActD-induced inhibition of SPEARs. The enrichments of ChIP-Seq signals for H2A.Z and acH2A.Z around 38,512 TSS (defined in the hg38 UCSC canonical gene table) following drug treatment were then compared with their occupancy in mock-treated (DMSO) cells. […] ActD-treated cells followed this pattern with a greater than 2-fold decrease in the levels of acH2A.Z at 6,283 TSS compared to untreated samples. […] For the c-MYC and PU1 loci, respectively, the ratios of control (DMSO) to drug treated H2A.Z peak intensities were: [DMSO/DRB/ActD]^c-MYC=1/0.76/0.67 and [DMSO/DRB/ActD]^PU.1=1/0.87/0.82; and the ratios of control (DMSO) to drug treated acH2A.Z peak intensities were: [DMSO/DRB/ActD]^c-MYC=1/0.62/0.36 and [DMSO/DRB/ActD]^PU.1=1.0/0.25/0.13. […] For MYB the ratios of control (DMSO) to drug treated acH2A.Z peak intensities are: [DMSO/DRB/ActD]^MYB=0.62/0.89/1.0, which corresponds to the increases in its SPEARs levels (FIG. 10C).
(§2) Double Thymidine block (early S-phase block) was carried out as described. Briefly, HL-60 cells were grown overnight to 70-80% confluence, washed twice with 1×PBS and cultured in DMEM (10% FCS)+2.5 mM Thymidine for 18 h (first block). Thymidine was washed out with 1×PBS and cells were grown in DMEM (10% FCS). After 8 hrs cells were cultured in the presence of thymidine for 18 h (second block) and then released as described. Synchrony was monitored by flow cytometry analysis of propidium iodide-stained cells using a LSRII flow cytometer (BD Biosciences) at the Harvard Stem Cell Institute/Beth Israel Deaconess Center flow cytometry facility.
(§3) DRB and Actinomycin D treatments were carried out as described. Briefly, after release from double thymidine block, HL-60 cells were treated with 100 μM of 5,6-Dichlorobenzimidazole 1-β-D-ribofuranoside (DRB) (Sigma Aldrich) or 0.8 μM of Actinomycin D (Sigma Aldrich) as indicated at each time point.
(§4) ChIP was performed as follows. Cells were crosslinked with 1% formaldehyde for 10 min at r.t. Pellets of 1×10^6 cells were used for immunoprecipitation and lysed for 10 minutes on ice and chromatin fragmented using a Branson 250 digital sonicator. Each ChIP was performed with 4 ug of antibody, incubated overnight at 4° C. A 50/50 slurry of protein A and protein G Dynabeads was used to capture enriched chromatin, which was then washed before reverse-crosslinking and proteinase K digestion at 65° C. AMPure XP beads were used to clean up and isolate ChIP DNA for subsequent library construction. The following antibodies were used for ChIP: H2A.Z (Abcam ab4174, lot GR3176820-1), acH2A.Z (Abcam ab18262, lot GR306397-1), TIP60 antibody; and IgG (Abcam ab171870). Fold enrichment was calculated using the formula 2^(−ΔΔCt(ChIP/non-immune serum)). Primer sets used for ChIP are listed in Table 2. nRIP was performed and crosslinked nuclei were collected as follows: 1. 60×10^6 HL-60 cells were crosslinked with 1% formaldehyde (formaldehyde solution, freshly made: 50 mM HEPES-KOH; 100 mM NaCl; 1 mM EDTA; 0.5 mM EGTA; 11% formaldehyde) for 10 min at room temperature. […]

acH2A.Z [1] = experiment: ChIP-Seq with acH2A.Z antibody, occupancy at TSSs; settings: for number of TSS with at least / greater than 2-fold drop in acH2A.Z occupancy: HL-60, 2 hr treatment, vs cells without treatment, 38,512 TSS compared; for acH2A.Z enrichment at the TSS, genome-wide / acH2A.Z peak intensity ratio, MYB locus (DMSO = 0.62, ActD = 1.0) / acH2A.Z peak intensity ratio, PU.1 locus (DMSO = 1.0) / acH2A.Z peak intensity ratio, c-MYC locus (DMSO = 1): HL-60, 2 hr; for acH2A.Z enrichment at the TSS, genome-wide: vs mock-treated (DMSO), FIG. 4C; for acH2A.Z peak intensity ratio, MYB locus (DMSO = 0.62, ActD = 1.0) / acH2A.Z peak intensity ratio, PU.1 locus (DMSO = 1.0) / acH2A.Z peak intensity ratio, c-MYC locus (DMSO = 1): [DMSO/DRB/ActD]
Excerpt: as §1, §2, §3, §4

acH2A.Z [2] = experiment: Western blot of total proteins, acH2A.Z normalized by H2A.Z; settings: HL-60, 2 hours; 200 μM MG149, 500 μM TH1834
Protocol: Whole-cell lysates from approximately 0.2×10^6 cells per each sample were separated on 12% SDS-PAGE gels and transferred to a nitrocellulose membrane. Immunoblots were stained overnight at 4° C. with the following primary antibodies: H2A.Z (1:2,000; Abcam ab4174), H2A.Z acetyl (K4+K7+K11) (1:2,000; Abcam ab18262) or TIP60 (1:1000; generous gift from Bruno Amati). All secondary horseradish peroxidase (HRP)-conjugated antibodies were diluted 1:5,000 and incubated for 1 hr at room temperature with TBST/5% BSA. Immuno-reactive proteins were detected using the Pierce® ECL system (Thermo Scientific #32106).

SMILES	number of TSS with comparable (2-fold) decrease in total H2A.Z occupancy (H2A.Z)	occupancy levels of unmodified H2A.Z at the TSS, genome-wide (H2A.Z)	H2A.Z peak intensity ratio, PU.1 locus (DMSO = 1) (H2A.Z)	H2A.Z peak intensity ratio, c-MYC locus (DMSO = 1) (H2A.Z)	number of TSS with at least / greater than 2-fold drop in acH2A.Z occupancy (acH2A.Z [1])	acH2A.Z enrichment at the TSS, genome-wide (acH2A.Z [1])	acH2A.Z peak intensity ratio, MYB locus (DMSO = 0.62, ActD = 1.0) (acH2A.Z [1])	acH2A.Z peak intensity ratio, PU.1 locus (DMSO = 1.0) (acH2A.Z [1])	acH2A.Z peak intensity ratio, c-MYC locus (DMSO = 1) (acH2A.Z [1])	level of acH2A.Z normalized by H2A.Z (acH2A.Z [2])
Cc1c2oc3c(C)ccc(C(=O)N[C@@H]4C(=O)N[C@H](C(C)C)C(=O)N5CCC[C@H]5C(=O)N(C)CC(=O)N(C)[C@@H](C(C)C)C(=O)O[C@@H]4C)c3nc-2c(C(=O)N[C@@H]2C(=O)N[C@H](C(C)C)C(=O)N3CCC[C@H]3C(=O)N(C)CC(=O)N(C)[C@@H](C(C)C)C(=O)O[C@@H]2C)c(N)c1=O [ActD, Actinomycin D] (I: T[dV]P[Sar][NMeV] / II: T[dV]P[Sar][NMeV]; ester I:1-I:C, II:1-II:C; linker I:N-II:N via Actinocin(9to1))	650 TSS	only modest changes	0.82	0.67	6,283 TSS	drastic reduction	1.0	0.13	0.36	
OC[C@H]1O[C@@H](n2cnc3cc(Cl)c(Cl)cc32)[C@H](O)[C@@H]1O [DRB, 5,6-Dichlorobenzimidazole 1-β-D-ribofuranoside]	398 TSS	only modest changes	0.87	0.76	3,394 TSS	drastic reduction	0.89	0.25	0.62	
CCCCCCCc1ccc(CCc2cccc(O)c2C(=O)O)cc1 [MG149]										Reduction
O=C(O)Cn1nnc(-c2ccc(CN(CCCCOc3ccc(CN4CCCC4)cc3)CCc3ccccc3)cc2)n1 [TH1834]										Reduction
